According to EPA's ToxValDB 9.5:
“And” between values parts separate entries of the source, which are not always exact repeats. Identical values can stand only once.

What was measured:
Mus musculus [1] = conditions: reproduction developmental, oral, gavage, M, NMRI, generation: P0
Mus musculus [2] = conditions: developmental; oral; gavage; M; neurobehavioral effects
Rattus norvegicus [3] = conditions: oral
Mus musculus [4] = conditions: subchronic; duration: 60 days; oral; gavage; Testes: Decreased sperm counts + Testes: Seminiferous tubule degeneration
Rattus norvegicus [5] = conditions: M/F; for LOAEL: inhalation
Mus musculus [6] = conditions: repeat dose other; oral
Mus musculus [7] = conditions: uterotrophic, duration: 3 days, Active
Rattus norvegicus [8] = conditions: for LEL: uterotrophic, Active
Anas platyrhynchos = conditions: oral
Rattus norvegicus [9] = conditions: repeat dose other; oral
Canidae = conditions: subchronic; duration: 90 days; oral; diet; Beagle
Rattus norvegicus [10] = test system: Rattus norvegicus
Gallus sp. = conditions: subchronic; duration: 90 days; oral; F; neurotoxicity
Homo sapiens = conditions: clinical; duration: 1 days; inhalation; nose only; unknown; respiratory
Oryctolagus sp. = conditions: for LD50: acute, dermal, occlusive; for NOAEL: duration: 13 days, oral, gavage
Rattus norvegicus [11] = conditions: chronic; duration: 2 years; oral; diet; Liver: Increased weight
Neovison sp. = conditions: repeat dose other; oral; Mink
Mus musculus [12] = conditions: acute; oral
Rattus norvegicus [13] = conditions: chronic; duration: 2 years; oral; diet; M/F; albino; Whole Body Effects
Coturnix japonica = conditions: repeat dose other; oral
[14] = short-term, duration: 28 days, oral, gavage
[15] = subchronic, duration: 90 days, oral, diet, Sprague-Dawley
[16] = Hershberger, duration: 10 days, oral, gavage, Sprague-Dawley, active + Androgenic + Negative + androgenic
[17] = reproduction developmental, duration: 10 days, oral, gavage, F, CD
[18] = chronic, duration: 2 years, oral, diet, liver weight increased males

`Brc1cc(Br)c(Oc2cc(Br)c(Br)cc2Br)cc1Br` [2,2',4,4',5,5'-Hexabromodiphenyl ether] was tested, and the LOEL (Mus musculus [1]; P0: Morris water maze (latency, last trial) + P0: Morris water maze (latency, middle trial) + P0: Morris water maze (latency, reversal trial…) was 0.9 mg/kg-day, the LOEL (Mus musculus [1]; P0: Morris water maze (latency, middle trial)) was 9 mg/kg-day and the LOAEL (Mus musculus [2]) was 0.9 mg/kg-day. The NOAEL (Mus musculus [2]) was 0.45 mg/kg-day.

`C=CC#N` [Acrylonitrile] showed an LOAEL (Rattus norvegicus [3]; chronic, duration: 22 months, drinking water, M/F, Spartan Sprague-Dawley, hematological) of 0.09 mg/kg-day, an NOAEL (Mus musculus [4]) of 1 mg/kg-day and an LOAEL (Rattus norvegicus [5]; chronic, duration: 2 years, Degeneration and inflammation of nasal respiratory epithelium + hyperplasia of mucous secreting cells) of 43 mg/m3.

`c1ccc2c(c1)cc1ccc3cccc4ccc2c1c34` [Benzo[a]pyrene] gave an LOAEL (Rattus norvegicus [5]; developmental, duration: 9 days, reduced embryo/fetal survival) of 0.025 mg/m3, an LOAEL (Mus musculus [6]) of 10 mg/kg-day and an NOAEL (Mus musculus [6]) of 1 mg/kg-day.

`O=C(O)c1ccccc1` [Benzoic acid] was tested, and the LEL (Mus musculus [7]; injection, subcutaneous) was 1 µg/100 g and the “LEL (ug/100 g BW)” value (Mus musculus [7]; injection, subcutaneous) was 10.

In the case of `O=C(OCc1ccccc1)c1ccccc1O` [Benzyl salicylate], the LEL (Mus musculus [7]; oral) is reported as 11.1 mg/kg-day and the LEL (Rattus norvegicus [8]; duration: 3 days, oral) is reported as 3.7 mg/kg-day.

For `[Cl][Cd][Cl]` [Cadmium chloride], the LOAEL (Anas platyrhynchos) was 20 mg/kg-day, the NOAEL (Anas platyrhynchos) was 1.45 mg/kg-day and the LOAEL (Rattus norvegicus [9]) was 10 mg/kg-day. The NOAEL (Rattus norvegicus [9]) was 1 mg/kg-day.

Work on `CCCCCCCCCCCCCCCCc1c(Oc2ccccc2S(=O)(=O)O)cccc1S(=O)(=O)O.[Na+].[Na+]` [Disodium hexadecyl(sulfophenoxy)benzenesulfonate] yielded an NOAEL (Canidae) of 200 mg/kg-day, an LD50 (Rattus norvegicus [10]; acute, dermal, occlusive, Sprague-Dawley) greater than 2000 mg/kg and an LD50 (Rattus norvegicus [10]; acute, dermal, occlusive, Wistar) greater than 2000 mg/kg. For the same molecule, the LD50 (Rattus norvegicus [10]; acute, oral, gavage) was greater than 3980 mg/kg, the LD50 (Rattus norvegicus [10]; acute, oral, gavage, Fischer 344) was 1500 mg/kg and > 2000 mg/kg and the LD50 (Rattus norvegicus [10]; acute, oral, gavage, Sprague-Dawley) was 7740 mg/kg and > 5000 mg/kg. For the same molecule, the LD50 (Rattus norvegicus [10]; acute, oral, gavage, Wistar) was greater than 5000 mg/kg, the LOAEL (Rattus norvegicus [10]; [14]) was 1000 mg/kg-day and the NOAEL (Rattus norvegicus [10]; [14]) was 250 mg/kg-day. The LOAEL (Rattus norvegicus [10]; [15]) was 200 mg/kg-day and the NOAEL (Rattus norvegicus [10]; [15]) was 100 mg/kg-day.

`CCOP(=S)(Oc1ccc([N+](=O)[O-])cc1)c1ccccc1` (stereo unspecified) [EPN] gave an LEL (Gallus sp.) of 0.1 mg/kg-day and an NOEL (Gallus sp.) of 0.01 mg/kg-day.

For `C[C@]12CC[C@H]3C(=CCc4cc(O)ccc43)[C@@H]1CCC2=O` [Equilin], the “LEL (gamma)” value (Mus musculus [7]; injection, subcutaneous) was 1 and 3, the LOEL (Rattus norvegicus [8]; [16]) was 2 mg/kg-day and the NOEL (Rattus norvegicus [8]; [16]) was 0.5 mg/kg-day. It also gave an LEL (Rattus norvegicus [8]; duration: 3 days, injection, subcutaneous) of 2 mg/kg-day and an LEL (Rattus norvegicus [8]; duration: 7 days, injection, subcutaneous) of 0.00025 mg/day.

In the case of `FF` [Fluorine], the NOAEL (Homo sapiens) is reported as 15.5 mg/m3.

`O=C(O)CCCC(=O)O` [Glutaric acid] was tested, and the “LOAEL (% diet)” value (Canidae) was 3, the “NOAEL (% diet)” value (Canidae) was no less than 2 and the LD50 (Oryctolagus sp.; New Zealand) was greater than 10000 mg/kg. The NOAEL (Oryctolagus sp.; developmental, New Zealand) was greater than 500 mg/kg-day, the NOAEL (Oryctolagus sp.; reproduction developmental, F, New Zealand) was greater than 500 mg/kg-day and the LD50 (Rattus norvegicus [10]; acute, oral, Sprague-Dawley) was 2750 mg/kg. The NOAEL (Rattus norvegicus [10]; developmental, duration: 10 days, oral, gavage, CD) was 1300 mg/kg-day, the LOAEL (Rattus norvegicus [10]; [17]) was 400 mg/kg-day and the NOAEL (Rattus norvegicus [10]; [17]) was 125 mg/kg-day. The NOAEL (Rattus norvegicus [10]; reproduction developmental, duration: 10 days, oral, gavage, F, Sprague-Dawley) was no less than 1000 mg/kg-day, the “LOAEL (% diet)” value (Rattus norvegicus [10]; [15]) was 2 and the “NOAEL (% diet)” value (Rattus norvegicus [10]; [15]) was no less than 1.

Work on `ClC1=C(Cl)C2(Cl)C3C(Cl)C=CC3C1(Cl)C2(Cl)Cl` (stereo unspecified) [Heptachlor] yielded an LOAEL (Rattus norvegicus [3]; reproduction developmental, duration: 14 days, gavage, F, CFT-Wistar, reproductive) of 1.8 mg/kg-day, an LOAEL (Rattus norvegicus [3]; reproduction developmental, duration: 364 days, gavage, M/F, Sprague-Dawley, immunological, neurological) of 0.03 mg/kg-day and an NOEL (Rattus norvegicus [11]) of 0.15 mg/kg-day. The LEL (Rattus norvegicus [5]; [18]) was 0.25 mg/kg-day, the NOEL (Rattus norvegicus [5]; [18]) was 0.15 mg/kg-day and the LOAEL (Neovison sp.) was 1 mg/kg-day. The NOAEL (Neovison sp.) was 0.1 mg/kg-day.

`O=C(O)CCCCC(=O)O` [Hexanedioic acid] gave an LD50 (Mus musculus [12]) of 1900 mg/kg, an LD50 (Oryctolagus sp.; New Zealand) greater than 7940 mg/kg and an NOAEL (Oryctolagus sp.; developmental, Dutch-belted) greater than 250 mg/kg-day. It also gave an LC50 (Rattus norvegicus [10]; acute, Inhalation, Sprague-Dawley) greater than 7.7 µg/mL, an LD50 (Rattus norvegicus [10]; acute, oral, Sprague-Dawley) of 5050 mg/kg and an NOAEL (Rattus norvegicus [10]; developmental, duration: 10 days, oral, gavage, Wistar) greater than 288 mg/kg-day. The NOAEL (Rattus norvegicus [13]) was 470 mg/kg-day.

`[Mn+2].[Mn+3].[Mn+3].[O-2].[O-2].[O-2].[O-2]` [Manganese oxide (Mn3O4)] was tested, and the LOAEL (Rattus norvegicus [9]) was 284 mg/kg-day, the NOAEL (Rattus norvegicus [9]) was 88 mg/kg-day and the NOAEL (Coturnix japonica) was 997 mg/kg-day.
